Ends that are not written are not given here. * marks the point of attachment. Palmitoyl = CCCCCCCCCCCCCCCC(=O)*

The test system of test [1] is T1, rBPI.
T1 construct: the human BPI (aa 32-487) and a C-terminal FLAG Tag; HA signal peptide (N); made in house; host or cells: HEK293T
The test is described as follows: BPI microtiter binding assay, LPS biotin-coated plates. Set-up: species or system human. Conditions: ligand pre-incubated with 20 nM rBPI. The protocol:
BPI binding assays were performed using a protocol published for LBP ([9]) with some modifications. Streptavidin-coated 96-well plates (Nunc^TM Immobilizer^TM Streptavidin F96 clear, Thermo Fisher Scientific, Waltham, MA, USA) were coated with LPS biotin (2 μg/ml) or Pam2CSK4 biotin (1 μg/ml) in PBS overnight at 23°C with gentle agitation. After washing with assay buffer (150 mM NaCl, 50 mM HEPES, Sigma Aldrich, Taufkirchen, Germany) containing 0.01% Casein, plates were blocked with 10 g/l BSA (Sigma Aldrich, Taufkirchen, Germany) at 37°C and washed again. Thereafter, ligands were preincubated with 20 nM BPI in assay buffer containing 1 g/l BSA for 30 min and loaded onto the plates. In case of bacterial lysates, 0.05% Tween 20 was added for preincubation. After incubation for 1 h at 37°C, three washing steps were performed. Bound BPI was detected by murine anti-human BPI monoclonal antibody (Cat.-No. HM2042, Hycult Biotech, Uden, Netherlands) and HRP-conjugated rabbit anti-mouse IgG (Cat.-No. 315-035-048, Dianova, Hamburg, Germany). TMB (BD OptEIA^TM TMB Substrate Reagent Set, BD Biosciences, Heidelberg, Germany) was used as a substrate for peroxidase. After addition of 1 N HCl, absorbance was measured at 450 nm. Technical replicates were performed at least two times using exactly the same reagents and are not indicated for the BPI microtiter binding assay. Biological replicates shown here are experiments independently performed by using separately formulated solutions of the reagents.

Test [2] deals with T1, rBPI. The test is described as follows: NanoDSF thermal stability of rBPI with ligand. Type of test: binding, human. Conditions: 5 μM rBPI, 30 μM ligand, PBS pH 7.4. The procedure:
For thermal unfolding experiments, rBPI protein was diluted to a final concentration of 5 μM in PBS pH 7.4, either containing a ligand at 30 μM concentration [(R)-Pam3CSK4, (R)-FSL-1 or LPS EC] or in the absence of a ligand. For each condition, 10 μl of sample per capillary were prepared. The samples were loaded into UV capillaries and experiments were carried out using the Prometheus NT.48 (NanoTemper Technologies, Munich, Germany). The temperature gradient was set to an increase of 1°C/min with a range from 20 to 90°C. Protein unfolding was measured by detecting the temperature-dependent change in tryptophan fluorescence at emission wavelength of 350 nm (Figure 3E, upper panel). Melting temperature (Tm) was determined by detecting the maximum of the first derivative of the fluorescence wavelength 350 nm. For this purpose, an 8th order polynomial fit was calculated for the transition region (Figure 3E, lower panel). Next, the first derivative of the fit was formed and the peak position (at Tm) was determined. Finally, Tm shift (Tm protein alone — Tm protein with ligand) upon addition of ligand to the protein (in°C) was calculated. Technical and biological replicates were defined as described for BPI microtiter binding assays.
Background: Differential scanning fluorimetry follows unfolding on heating by fluorescence.

The target of another test is T2, BPIN(A) (Homo sapiens, UniProt P17213).
T2 construct: Bactericidal/permeability-increasing protein (BPI) extracted from neutrophils; purchased Athens Research and Technology; host or cells: neutrophils
T2 sequence (P17213 32-487): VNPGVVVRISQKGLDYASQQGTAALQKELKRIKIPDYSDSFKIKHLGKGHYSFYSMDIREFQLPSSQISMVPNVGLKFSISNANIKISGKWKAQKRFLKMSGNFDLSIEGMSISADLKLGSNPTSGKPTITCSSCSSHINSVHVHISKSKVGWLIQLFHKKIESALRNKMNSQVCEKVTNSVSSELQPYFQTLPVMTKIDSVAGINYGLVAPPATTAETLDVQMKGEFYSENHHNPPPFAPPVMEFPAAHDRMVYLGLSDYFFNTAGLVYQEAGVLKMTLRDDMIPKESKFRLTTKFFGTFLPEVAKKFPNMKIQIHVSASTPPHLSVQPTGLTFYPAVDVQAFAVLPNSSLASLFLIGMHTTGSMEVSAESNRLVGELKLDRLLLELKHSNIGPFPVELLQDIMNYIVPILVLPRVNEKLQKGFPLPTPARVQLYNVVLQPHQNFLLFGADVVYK
The test is described as follows: MicroScale Thermophoresis (MST) binding assay with neutrophil BPI. The settings on record: 25°C. The procedure:
BPIN(A) and rBPI were labeled with NT647 in PBS pH 7.4 (Monolith NT™ Protein Labeling Kit RED—NHS, NanoTemper Technologies, Munich, Germany). Concentration of labeled protein was determined using the NanoDrop (ThermoScientific, Wilmington, NC, USA) and Bradford assay (Promega, Mannheim, Germany). MicroScale Thermophoresis (MST) binding experiments were carried out with 5 nM labeled protein in binding buffer (10 mM HEPES pH 7.4, 150 mM NaCl, 0.1% Tween) with 0.05–1,679 nM of LPS EC or 0.196–6,436 nM of Pam3CSK4 or 0.61–20,000 nM of LTA SAΔlgt and LTA SPΔlgt or of >0.61–20,000 nM WTA SPΔlgt at 20–40% MST power, 20% LED power in premium capillaries on a Monolith NT.115 pico device at 25°C (NanoTemper Technologies, Munich, Germany). For MST binding assays based on Pam3CSK4 Fluorescein, 20 nM of the fluorescent molecule in binding buffer (10 mM HEPES pH 7.4, 150 mM NaCl, 0.1% Tween) was supplied with 0.018–600 nM BPIN(A) and measured at 40% MST power, 10% LED power in premium capillaries on a Monolith NT.115 pico device at 25°C (NanoTemper Technologies, Munich, Germany).
MST timetraces were recorded and the temperature jump or, respectively, thermophoresis was analyzed. The recorded fluorescence was plotted against the ligand concentration and curve fitting was performed with KaleidaGraph 4.5 using the dissocation constant (KD) fit formula derived from the law of mass action. […]
(MST reads how a fluorescent partner responds to local heating, with and without ligand.)

In another test the test system is TLR2. Set-up: method as in PMID 15193414. Conditions: cited from earlier work.

In the case of `CCCCCCCCCCCCCCCC(=O)OCC(CO)OC(=O)CCCCCCCCCCCCCCC` (stereo not shown) [DAG, Diacyl-glycerol 16:0], the “inhibition of binding of rBPI to LPS biotin-coated wells” value (“inhibition of binding of rBPI” below) in the test with rBPI [1] is “no inhibitory binding”.
Turning to “(R)-Pam2CSK4: di-acylated lipopeptide; acyl-chain deleted at the amino-terminal cysteine of the residual peptide (CSKKKK; di-acylated: diacyl-thioglycerol motif on the cysteine; no acyl-chain at the amino-terminal cysteine of the residual peptide)”, the “inhibition of binding of rBPI” value in the test with rBPI [1] is “lower inhibitory potential”. Also, the “change in melting temperature (Tm) of rBPI” value in the test with rBPI [2] is reported as “decrease in Tm”.
Broadly, the Kd is the concentration at which binding is half-saturated. In the case of “Pam3CSK4 Fluorescein: Pam3CSK4, covalently labeled with fluorescein (CSKKKK)”, in the test with BPIN(A) (20 nM Pam3CSK4 Fluorescein incubated with increasing concentrations of unlabeled BPIN(A)), the Kd turned out to be 20.3 nM.
Turning to “Pam3CSK4: tri-acylated lipopeptide; racemate of (R)-Pam3CSK4 and (S)-Pam3CSK4 (Palmitoyl-CSKKKK; not fully specified (residue 1); also: racemate of (R) and (S) forms at the glycerol centre)”, in the test on rBPI [1], the “inhibition of binding of rBPI” value is “inhibited binding of rBPI to LPS in a dose-dependent manner”. This compound returned an equilibrium dissociation constant (Kd) with BPIN(A) (BPIN(A) NT647 (5 nM) incubated with increasing concentrations of ligand) of 66.7 nM.
With “Pam 2^* CSK4: di-acylated lipopeptide; acyl-chain deleted at the O-2-position of the thioglycerol core (CSKKKK; also: di-acylated lipopeptide, acyl chain deleted at O-2 of thioglycerol core)”, the TLR2-stimulatory potential result with TLR2 is “lack TLR2-stimulatory potential”. The “inhibition of binding of rBPI” value in the test with rBPI [1] is “lower inhibitory potential”.
With “PamCSK4: mono-acylated lipopeptide; glycerol-core with two fatty acids deleted, peptide with only one fatty acid (Palmitoyl-CSKKKK)”, the TLR2-stimulatory potential result in the test with TLR2 is recorded as “lack TLR2-stimulatory potential”. In addition, the “inhibition of binding of rBPI” value in the test on rBPI [1] is recorded as “not enough to completely block the inhibitory potential”.

The values are drawn from paper PMC6293271, “Bactericidal/Permeability-Increasing Protein Is an Enhancer of Bacterial Lipoprotein Recognition” (Frontiers in Immunology, 2018).
